Laboratory results as given in patent US12398121B2 (Nuvation Bio Inc., priority 2018, dated 2025).
Read-outs that look alike come from different tables or passages of the source.

Molecular target: T1, AR in LNCaP cytosol (Homo sapiens, UniProt P10275, T878A)
T1 construct: endogenous in cells; host or cells: LNCaP cytosol
T1 sequence (P10275 1-920 T878A): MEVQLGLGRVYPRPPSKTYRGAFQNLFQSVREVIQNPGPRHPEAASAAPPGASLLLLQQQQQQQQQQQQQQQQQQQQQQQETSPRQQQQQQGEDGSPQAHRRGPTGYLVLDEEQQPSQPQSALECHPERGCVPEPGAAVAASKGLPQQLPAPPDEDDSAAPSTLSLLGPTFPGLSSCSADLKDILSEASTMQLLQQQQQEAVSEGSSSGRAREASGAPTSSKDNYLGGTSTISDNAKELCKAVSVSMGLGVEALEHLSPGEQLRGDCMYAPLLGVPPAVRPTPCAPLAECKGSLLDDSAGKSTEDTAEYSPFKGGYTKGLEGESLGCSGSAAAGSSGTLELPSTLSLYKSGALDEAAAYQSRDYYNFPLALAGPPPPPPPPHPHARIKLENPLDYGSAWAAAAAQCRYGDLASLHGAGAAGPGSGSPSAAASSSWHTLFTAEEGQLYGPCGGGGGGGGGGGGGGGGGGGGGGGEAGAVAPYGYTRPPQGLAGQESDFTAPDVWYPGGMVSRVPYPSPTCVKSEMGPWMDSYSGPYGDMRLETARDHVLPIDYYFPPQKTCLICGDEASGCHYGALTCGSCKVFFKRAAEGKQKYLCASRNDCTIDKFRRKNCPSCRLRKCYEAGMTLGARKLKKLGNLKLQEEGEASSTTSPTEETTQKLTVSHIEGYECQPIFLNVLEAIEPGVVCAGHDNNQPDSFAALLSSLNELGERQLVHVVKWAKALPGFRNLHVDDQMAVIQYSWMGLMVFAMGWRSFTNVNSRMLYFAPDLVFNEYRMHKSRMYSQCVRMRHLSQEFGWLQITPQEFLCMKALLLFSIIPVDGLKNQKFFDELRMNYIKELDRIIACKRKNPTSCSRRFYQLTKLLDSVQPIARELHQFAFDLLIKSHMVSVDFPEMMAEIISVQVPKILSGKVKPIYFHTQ
Experiment: AR binding assay (3H-methyltrienolone displacement)
Experimental: The following methods are for evaluating the in vitro biology properties of the test articles. • a. RBC HotSpot Poly(ADP-ribose) Polymerases 1 (PARP1) and Poly(ADP-ribose) Polymerases 2 (PARP2) Assays: The assay principle is radioisotope-based filter binding assay where incorporation of radioisotope-labeled NAD^+ into the substrate captured on filter is detected after washout free NAD^+. Data were analyzed using Excel and GraphPad Prism software for IC50 curve fits. Each assay was conducted with PJ34 as a positive control. • i. PARP1 assay: Human recombinant PARP1 at a final concentration of 2.5 nM was combined with histone H4 (20 μM) and test articles at various concentrations in reaction buffer (50 mM Tris-HCL, pH 8.0, 50 mM NaCl, 10 mM MgCl2, 1 mM DTT, 1% DMSO, and 20 μg/mL activated DNA). The solution was inoculated for 20 min at room temperature and the reaction initiated by adding [adenylate-^32P]-Nicotinamide Adenine Dinucleotide, ^32P-NAD^+ at a final concentration of 10 μM. After incubation for 2 hour at room temperature, the reaction mixture was filtered and washed with 0.75% phosphoric acid for radioactivity detection. • ii. PARP2 assay: Human recombinant PARP2 at a final concentration of 2.5 nM was combined with histone H3 (20 μM) and test articles at various concentrations in reaction buffer (50 mM Tris-HCL, pH 8.0, 50 mM NaCl, 10 mM MgCl2, 1 mM DTT, 1% DMSO, and 20 μg/mL activated DNA). The solution was inoculated for 20 min at room temperature and the reaction was initiated by adding [adenylate-^32P]-Nicotinamide Adenine Dinucleotide, ^32P-NAD^+ at a final concentration of 10 μM. After incubation for 2 hour at room temperature, the reaction mixture was filtered and washed with 0.75% phosphoric acid for radioactivity detection. • b. AR binding assay: AR in LNCaP cytosol was used for determining the binding affinity of test articles and the reference compound—progesterone (Sigma, Cat: E2785, St. Louis, MO). IC50s were determined using 8 concentrations/compound. Cytosol was plated at 200 μg/well (100 μL) into a 96-well conical polypropylene plate (Agilent, Cat: 5042-1385, Santa Clara, CA) and mixed with 3 μL of test compound. After adding 100 μL of ^3H-methyltrienolone (PerkinElmer, Cat: NET590250UC, San Jose, CA), the plate was sealed and shaken at 300 rpm at 4° C. for 24 hours. Post incubation, 100 μL of radioligand adsorption buffer containing 10 mM Tris-HCl, pH 7.4; 1.5 mM EDTA; 1 mM DTT; 0.25% charcoal; 0.0025% dextran was added to individual well. Plate was shaken for 15 min at 4′C followed by centrifugation at 3000 rpm for 30 min at 4° C. 150 μL of supernatant was transferred into scint-tube (PerkinElmer, Cat: 6000192) and mixed with 2 mL of Ultima Gold Cocktail (PerkinElmer, Cat: 6013329). Radioactivity was counted using a TriCarb 2910 TR scintillation counter (PerkinElmer). Inhibition of the radioactivity by test articles were calculated using the equation below: % Inhibition=(1−(Assay well−Average_LC)/(Average_HC−Average_LC))×100%.
IC50 values were calculated and graphed using the model “log(inhibitor) vs. response—Variable slope” included in GraphPad Prism 5 (San Diego, CA). The Ki values were further calculated using the equation below where [L] was the radioligand concentration (1 nM) using in this study. Kd value was 0.332 nM. Ki=IC50/(1+[L]/Kd) c. AR transactivation: Human AR cloned into a CMV vector backbone was used for the transactivation study. HEK-293 cells were plated at 80,000 cells per well of a 24 well plate in DME+5% csFBS. Twenty four hours later, the cells were transfected using Lipofectamine (Invitrogen, Carlsbad, CA) with 0.25 μg GRE-LUC, 0.01 μg CMV-LUC (renilla luciferase) and 25 ng of the AR in OPTIMEM medium. The cells were treated 24 hrs after transfection with various ligands (10^−12 to 10^−5 M final concentrations) and luciferase assay were performed 48 hours after transfection. […]

[1] = Ki=IC50/(1+[L]/Kd), [L] 1 nM, Kd 0.332 nM, read-out: AR Ki

Row | SMILES | Ki | Ki [1]
1 | C[C@]12CCC(O)C[C@@H]1CC[C@@H]1[C@@H]2CC[C@]2(C)[C@@H](OCCCCCC(=O)N3CCN(C(=O)c4cc(Cc5n[nH]c(=O)c6ccccc56)ccc4F)CC3)CC[C@@H]12 (stereo partly drawn) [Compound 1.111, 4-(4-fluoro-3-(4-(6-((5S,8R,9S,10S,13S,14S,17S)-3-hydroxy-10,13-dimethylhexadecahydro-1H-cyclopenta[a]phenanthren-17-yloxy)hexanoyl)piperazine-1-carbonyl)benzyl)phthalazin-1(2H)-one] | 36 nM | 
2 | C[C@]12CCC(F)(F)C[C@@H]1CC[C@@H]1[C@@H]2CC[C@]2(C)[C@@H](OCCCCCC(=O)N3CCN(C(=O)c4cc(Cc5n[nH]c(=O)c6ccccc56)ccc4F)CC3)CC[C@@H]12 [Compound 1.114, 4-(3-(4-(6-((5S,8R,9S,10S,13S,14S,17S)-3,3-difluoro-10,13-dimethylhexadecahydro-1H-cyclopenta[a]phenanthren-17-yloxy)hexanoyl)piperazine-1-carbonyl)-4-fluorobenzyl)phthalazin-1(2H)-one] | 19 nM | 
3 | C[C@]12CCC(=O)C[C@@H]1CC[C@@H]1[C@@H]2CC[C@@]2(C)[C@H]1CC[C@@]2(O)C#CC(=O)N1CCN(C(=O)c2cc(Cc3n[nH]c(=O)c4ccccc34)ccc2F)CC1 [Compound 1.116, 4-(4-fluoro-3-(4-(3-((5S,8R,9S,10S,13S,14S,17S)-17-hydroxy-10,13-dimethyl-3-oxohexadecahydro-1H-cyclopenta[a]phenanthren-17-yl)propioloyl)piperazine-1-carbonyl)benzyl)phthalazin-1(2H)-one] |  | 4970 nM
4 | C[C@]12CCC(=O)C[C@@H]1CC[C@@H]1[C@@H]2CC[C@@]2(C)[C@H]1CC[C@@]2(O)C#CCN1CCN(C(=O)c2cc(Cc3n[nH]c(=O)c4ccccc34)ccc2F)CC1 [Compound 1.118, 4-(4-fluoro-3-(4-(3-((5S,8R,9S,10S,13S,14S,17S)-17-hydroxy-10,13-dimethyl-3-oxohexadecahydro-1H-cyclopenta[a]phenanthren-17-yl)prop-2-ynyl)piperazine-1-carbonyl)benzyl)phthalazin-1(2H)-one] |  | > 7470 nM
5 | C[C@]12CCC(=O)C[C@@H]1CC[C@@H]1[C@@H]2CC[C@@]2(C)[C@H]1CC[C@@]2(O)CCCN1CCN(C(=O)c2cc(Cc3n[nH]c(=O)c4ccccc34)ccc2F)CC1 [Compound 1.119, 4-(4-fluoro-3-(4-(3-((5S,8R,9S,10S,13S,14S,17R)-17-hydroxy-10,13-dimethyl-3-oxohexadecahydro-1H-cyclopenta[a]phenanthren-17-yl)propyl)piperazine-1-carbonyl)benzyl)phthalazin-1(2H)-one] | 20 nM | 
